How the values were obtained:
[1] = test system: HTLV-1-infected cell line, MT2; assay: Combination of abacavir and topoisomerase inhibitor, cellular proliferation (MTS), MT2; type: cell-based; conditions: 48 hours, abacavir 10 or 25 μM plus CPT-11 200-400 pM, VP16 100-500 nM or ADR 10-50 nM
Description: An HTLV-1-infected cell line, MT2 cell, was used. Abacavir was added at a concentration of 0 μM (DMSO was added instead of abacavir), 10 μM, or 25 μM, and to each of the samples, CPT-11 (generic name: irinotecan) was further added at a concentration of 0 pM, 200 pM, 300 pM, or 400 pM. The cells were cultured for 48 hours. Separately, abacavir was added to MT2 cells at the concentrations as described above, and VP16 (generic name: etoposide) was further added to each of the samples at a concentration of 0 nM, 100 nM, 250 nM, or 500 nM, followed by 48 hours culture. Separately, abacavir was added to MT2 cells at the concentrations as described above, and ADR (generic name: doxorubicin) was further added at a concentration of 0 nM, 10 nM, 25 nM, or 50 nM, followed by 48 hours culture. MTS assay was performed using a reagent for cellular proliferation test, Aqueous One Solution Cell Proliferation (trade name, manufactured by Promega), in the same manner as in Example 1.
The graphs (A), (B), and (c) show the results of combinations of abacavir (ABC in the graph) and CPT-11, abacavir and VP16, and abacavir and ADR, respectively. In the graphs, the vertical axis indicates the proliferation rate calculated from the cell number when the cell number at the administration of the agents was regarded as 1.

[2] = test system: non-ATL cell line, Jurkat; assay: PARP inhibitor combination, cellular proliferation (MTS), Jurkat; type: cell-based, human; conditions: olaparib 1-1000 μM, 48 hours
Description: (§1) To an ATL cell line, ED40515 (−), or a non-ATL cell line, Jurkat, abacavir was added at a concentration of 0 μM (DMSO, was added instead of abacavir), 10 μM, 50 μM or 100 μM, and further a PARP inhibitor, olaparib, was added at a concentration of 0 μM (DMSO was added instead of olaparib), 1 μM, 10 μM, 100 μM or 1000 μM. The cells were cultured for 48 hours. MTS assay was performed using a reagent for cellular proliferation test, Aqueous One Solution Cell Proliferation (trade name, manufactured by Promega), in the same manner as in Example 1. The cellular proliferation was represented by a ratio relative to that of the control (solvent control) on Day 0 that was regarded as 1.

[3] = test system: ATL cell line, ED40515 (−); assay: PARP inhibitor combination, cellular proliferation (MTS), ED40515 (−); type: cell-based; conditions: olaparib 1-1000 μM with abacavir 10, 50 or 100 μM, 48 hours
Description: as §1

[4] = test system: ATL cell line, ED40515 (−); assay: Chromosome double-strand break (Giemsa chromosome specimens), ED40515 (−); type: cell-based; conditions: 48 hours, abacavir 10-100 μM, zidovudine 10 or 100 μM
Description: Abacavir was added to an ATL cell line, ED40515 (−), at a concentration of 0 μM (DMSO was added instead of abacavir), 10 μM, 25 μM, 50 μM, 75 μM or 100 μM. After the 48 hours culture, the cells were fixed by Carnoy and stained with Giemsa to prepare chromosome specimens in accordance with conventional methods. Similarly, zidovudine was added to ED40515 (−) at a concentration of 10 μM or 100 μM, and abacavir was added to a non-ATL cell line, Jurkat, at a concentration of 100 μM, and chromosome specimens were prepared. Chromosome images (100 or more images per group) were observed by an optical microscope. The cells were determined as being positive for double-strand break (DSB) when at least one chromosome break was found.

ATL cells = conditions: in vitro; Non Patent Literature 4; cited from earlier work

COc1cccc2c1C(=O)c1c(O)c3c(c(O)c1C2=O)C[C@@](O)(C(=O)CO)C[C@@H]3O[C@H]1C[C@H](N)[C@H](O)[C@H](C)O1 [ADR, doxorubicin]
cellular proliferation (proliferation rate) in combination with abacavir [1]: significantly suppressed cellular proliferation

CCc1c2c(nc3ccc(OC(=O)N4CCC(N5CCCCC5)CC4)cc13)-c1cc3c(c(=O)n1C2)COC(=O)[C@]3(O)CC [CPT-11, irinotecan]
cellular proliferation (proliferation rate) in combination with abacavir [1]: significantly suppressed cellular proliferation

COc1cc([C@@H]2c3cc4c(cc3[C@@H](O[C@@H]3O[C@@H]5CO[C@@H](C)O[C@H]5[C@H](O)[C@H]3O)[C@H]3COC(=O)[C@H]23)OCO4)cc(OC)c1O [VP16, etoposide]
cellular proliferation (proliferation rate) in combination with abacavir [1]: significantly suppressed cellular proliferation

O=C(c1cc(Cc2n[nH]c(=O)c3ccccc23)ccc1F)N1CCN(C(=O)C2CC2)CC1 [olaparib]
cellular proliferation [2]: did not affect cellular proliferation | effect of PARP inhibitor on suppression of cellular proliferation by abacavir [3]: enhanced the suppressive effect of abacavir

Cc1cn([C@H]2C[C@H](N=[N+]=[N-])[C@@H](CO)O2)c(=O)[nH]c1=O [zidovudine]
ratio of double-strand break-positive cells [4]: did not induce double-strand break | anti-cancer effect against ATL cells (ATL cells): no anti-cancer effect
